Reference: patent publication US12509460B2 (Skyhawk Therapeutics, Inc., priority 2019, dated 2025)
Like-named read-outs stand apart in the source and are kept apart here.

Assays:
[1] = Quantitative splicing assay (HTT), qPCR; format: cell-based, human; settings: Homo sapiens, GM04724, 24 h, GM04724 lymphoblasts, read-out: HTT Splicing: E49-50 EC50
Outline: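 Patient lymphoblasts (50,000 cells/well) dosed immediately after plating for 24 h at 2.5 uM to 0.15 nM in 0.1% DMSO. Lysed, cDNA made directly from cells, and inclusion of the intron 49 cryptic exon quantified by TaqMan qPCR.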

MDR1 = experiment: Blood-brain-barrier (BBB) penetration potential via MDCK-MDR1 permeability assay; settings: dog, MDCK-MDR1, pH 7.4, MDCK-MDR1: Efflux
[2] = tested on: MDR1-MDCK cell monolayers; experiment: as above
MDR1 (P-gp) = experiment: as above; settings: dog; for Papp A→B at 120 min, 5 μM: MDCK-MDR1, pH 7.4, MDCK-MDR1: Papp A-B; for Papp B→A at 120 min, 5 μM: MDCK-MDR1, pH 7.4, MDCK-MDR1: Papp B-A
[3] = tested on: SMN protein in spinal muscular atrophy (SMA) patient fibroblasts (GM03813, Coriell); experiment: SMN protein assay, Mesoscale Discovery (MSD); format: cell-based, human; settings: read-out: SMN2 protein EC50
Outline: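 SMA patient fibroblasts (GM03813) seeded at 7000 cells/well and exposed to compound at 2.5 μM to 0.6 nM for 48 hours. Lysates assayed for SMN by MSD immunoassay, with absolute SMN amount calculated from a per-plate SMN standard curve (1 μg/ml to 19.5 pg/ml).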

[4] = tested on: SMN FL and SMN Δ7 in spinal muscular atrophy (SMA) patient fibroblasts (GM03813, Coriell); experiment: Quantitative splicing assay (SMN), qPCR; format: cell-based, human; settings: Homo sapiens, Fibroblast, 24 h, read-out: SMN2 Splicing FL EC50
Description: Spinal muscular atrophy (SMA) patient fibroblasts (GM03813, Coriell) are plated in 96-well plates at 50,000 cells/well. […] Treated cells are lysed and cDNA synthesized using the Fast Advanced Cells-to-Ct kit (Thermofisher A35378) according to the manufacturer's instructions. 2 μL of each cDNA are used in qPCR reactions. […] Reactions are run in a Quant Studio 6 qPCR instrument with default settings.

[5] = tested on: mHTT protein in GM04724 (CAG 70/20) Huntington's disease patient lymphoblast cells; experiment: mHTT protein assay, 2B7-MW1 assay via Mesoscale Discovery (MSD); format: cell-based, human
Outline: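 Patient lymphoblasts treated 48 h with compound from 10 μM to 0.6 nM. mHTT quantified by MSD 2B7-MW1 immunoassay, whose signal depends on polyQ expansion and HTT size. Viability measured on a replicate plate by CellTiter Glo.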

[6] = SMA patient fibroblasts GM03813, 48 hours, MSD
[7] = SMA patient fibroblasts GM03813, 24 h, qPCR
[8] = GM04724 Huntington's disease patient lymphoblasts

Row | SMILES | EC50 ([1]; qPCR) [nM] | efflux ratio at 120 min, 5 μM (MDR1; efflux ratio) | MDCK-MDR1: % Recov A-B ([2]; A-B direction) [%] | MDCK-MDR1: % Recov B-A ([2]; B-A direction) [%] | Papp A→B at 120 min, 5 μM (MDR1 (P-gp); A-B direction) [×10⁻⁶ cm/s] | Papp B→A at 120 min, 5 μM (MDR1 (P-gp); B-A direction) [×10⁻⁶ cm/s] | EC50 [3, 6] [nM] | EC50 [4, 7] [nM] | EC50 [5, 8] [nM] | EC50 [1] [nM] | efflux ratio at 120 min, 5 μM (MDR1) | MDCK-MDR1: % Recov A-B ([2]; A-B) [%] | MDCK-MDR1: % Recov B-A ([2]; B-A) [%] | Papp A→B at 120 min, 5 μM (MDR1 (P-gp); A-B) [×10⁻⁶ cm/s] | Papp B→A at 120 min, 5 μM (MDR1 (P-gp); B-A) [×10⁻⁶ cm/s] | EC50 ([3]; SMA patient fibroblasts (GM03813), 48 hours) [nM] | EC50 ([4]; SMA patient fibroblasts (GM03813)) [nM] | EC50 ([5]; GM04724 (CAG 70/20) Huntington's disease patient lymphoblasts) [nM]
1 | CCN(c1ccc(-c2ccc(-c3cn[nH]c3)cc2O)nn1)[C@@H]1C[C@H]2CC[C@H](N2)[C@@H]1F [Compound 12A, 2-(6-(ethyl((1S,2S,3R,5R)-2-fluoro-8-azabicyclo[3.2.1]octan-3-yl)amino)pyridazin-3-yl)-5-(1H-pyrazol-4-yl)phenol] | 51 to 100 | 27 | 72 | 74 | 0.89 | 23.6 | 16 to 50 | 101 to 500 | 16 to 50 | – | – | – | – | – | – | – | – | –
2 | CN(c1ccc(-c2cc3ccn(C)c(=O)c3cc2O)nn1)[C@H]1C[C@@H]2CC[C@@H](N2)[C@H]1F [Compound 84B, 6-(6-(((1R,2R,3S,5S)-2-fluoro-8-azabicyclo[3.2.1]octan-3-yl)(methyl)amino)pyridazin-3-yl)-7-hydroxy-2-methylisoquinolin-1(2H)-one] | 0.01 to 15 | 48 | 112 | 76 | 1.06 | 50.9 | 0.01 to 15 | 0.01 to 15 | 0.01 to 15 | – | – | – | – | – | – | – | – | –
3 | Cc1cc(=O)c2cc(O)c(-c3ccc(N(C)[C@@H]4C[C@H]5CC[C@H](N5)[C@@H]4F)nn3)cc2o1 [Compound 49A, 7-(6-(((1S,2S,3R,5R)-2-fluoro-8-azabicyclo[3.2.1]octan-3-yl)(methyl)amino)pyridazin-3-yl)-6-hydroxy-2-methyl-4H-chromen-4-one] | 16 to 50 | 43 | 93 | 78 | 0.72 | 30.7 | 0.01 to 15 | 0.01 to 15 | 16 to 50 | – | – | – | – | – | – | – | – | –
4 | Cc1cc(=O)c2cc(-c3ccc(N(C)[C@H]4C[C@@H]5CC[C@@H](N5)[C@H]4F)nn3)c(O)cc2o1 [Compound 50B, 6-(6-(((1R,2R,3S,5S)-2-fluoro-8-azabicyclo[3.2.1]octan-3-yl)(methyl)amino)pyridazin-3-yl)-7-hydroxy-2-methyl-4H-chromen-4-one] | 0.01 to 15 | 29 | 80 | 95 | 1.81 | 51.8 | 0.01 to 15 | 0.01 to 15 | 0.01 to 15 | – | – | – | – | – | – | – | – | –
5 | CN(c1ccc(-c2cc3cnn(C)c3cc2O)nn1)[C@@H]1C[C@H]2CC[C@H](N2)[C@@H]1F [Compound 76A, 5-(6-(((1S,2S,3R,5R)-2-fluoro-8-azabicyclo[3.2.1]octan-3-yl)(methyl)amino)pyridazin-3-yl)-1-methyl-1H-indazol-6-ol] | 101 to 500 | 12 | 83 | 88 | 5.55 | 69.2 | 16 to 50 | 101 to 500 | 16 to 50 | – | – | – | – | – | – | – | – | –
6 | CN(c1ccc(-c2ccc(-c3cc[nH]n3)cc2O)nn1)[C@@H]1C[C@H]2CC[C@H](N2)[C@@H]1F (single isomer, unassigned) [Compound 33A] | 16 to 50 | 31 | 95 | 105 | 1.33 | 40.7 | 16 to 50 | 51 to 100 | 16 to 50 | – | – | – | – | – | – | – | – | –
7 | Cc1nc2cc(O)c(-c3ccc(N(C)[C@@H]4C[C@H]5CC[C@H](N5)[C@@H]4F)nn3)cc2o1 [Compound 117A, 6-(6-(((1S,2S,3R,5R)-2-fluoro-8-azabicyclo[3.2.1]octan-3-yl)(methyl)amino)pyridazin-3-yl)-2-methylbenzo[d]oxazol-5-ol] | – | – | – | – | – | – | – | – | – | 51 to 100 | 6 | 84 | 97 | 6.87 | 39.9 | 16 to 50 | 101 to 500 | 16 to 50
8 | CN(c1ccc(-c2cc3cccnc3cc2O)nn1)[C@H]1C[C@@H]2CC[C@@H](N2)[C@H]1F [Compound 74B, 6-(6-(((1R,2R,3S,5S)-2-fluoro-8-azabicyclo[3.2.1]octan-3-yl)(methyl)amino)pyridazin-3-yl)quinolin-7-ol] | 51 to 100 | 19 | 77 | 90 | 3 | 56 | 0.01 to 15 | 16 to 50 | 0.01 to 15 | – | – | – | – | – | – | – | – | –
9 | COc1cnc(-c2ccc(-c3ccc(N(C)[C@H]4C[C@@H]5CCC[C@@H](N5)[C@H]4F)nn3)c(O)c2)cn1 [Compound 29B, 2-(6-(((1R,2R,3S,5S)-2-fluoro-9-azabicyclo[3.3.1]nonan-3-yl)(methyl)amino)pyridazin-3-yl)-5-(5-methoxypyrazin-2-yl)phenol] | 16 to 50 | 4 | 21 | 48 | 1.54 | 5.63 | 0.01 to 15 | 501 to 10000 | 0.01 to 15 | – | – | – | – | – | – | – | – | –
10 | CN(c1ccc(-c2ccc(-c3cnc(C#N)cn3)cc2O)nn1)[C@H]1C[C@@H]2CCC[C@@H](N2)[C@H]1F [Compound 28B, 5-(4-(6-(((1R,2R,3S,5S)-2-fluoro-9-azabicyclo[3.3.1]nonan-3-yl)(methyl)amino)pyridazin-3-yl)-3-hydroxyphenyl) pyrazine-2-carbonitrile] | 0.01 to 15 | 35 | 36 | 70 | 1.11 | 38.9 | 0.01 to 15 | 0.01 to 15 | 16 to 50 | – | – | – | – | – | – | – | – | –
11 | CN(c1ccc(-c2ccc(-c3cnn(C)c3)cc2O)nn1)[C@@H]1C[C@H]2CCC[C@H](N2)[C@H]1F [Compound 14A, 2-(6-(((1S,2R,3R,5R)-2-fluoro-9-azabicyclo[3.3.1]nonan-3-yl)(methyl)amino)pyridazin-3-yl)-5-(1-methyl-1H-pyrazol-4-yl)phenol] | 16 to 50 | 14 | 59 | 83 | 3 | 42.4 | 0.01 to 15 | 51 to 100 | 16 to 50 | – | – | – | – | – | – | – | – | –
12 | CN(c1ccc(-c2cc3occc(=O)c3cc2O)nn1)[C@@H]1C[C@H]2CC[C@H](N2)[C@@H]1F [Compound 43A, 7-(6-(((1S,2S,3R,5R)-2-fluoro-8-azabicyclo[3.2.1]octan-3-yl)(methyl)amino)pyridazin-3-yl)-6-hydroxy-4H-chromen-4-one] | 51 to 100 | 11 | 64 | 58 | 2.14 | 23.2 | 0.01 to 15 | 16 to 50 | 16 to 50 | – | – | – | – | – | – | – | – | –
13 | CN(c1ccc(-c2cc(F)c(-n3ccnn3)cc2O)nn1)[C@H]1C[C@@H]2CC[C@@H](N2)[C@H]1F [Compound 52B, 4-fluoro-2-(6-(((1R,2R,3S,5S)-2-fluoro-8-azabicyclo[3.2.1]octan-3-yl)(methyl)amino)pyridazin-3-yl)-5-(1H-1,2,3-triazol-1-yl)phenol] | 16 to 50 | 7 | 97 | 90 | 7.44 | 54.4 | 0.01 to 15 | 16 to 50 | 0.01 to 15 | – | – | – | – | – | – | – | – | –
